From ChEMBL document CHEMBL1687699, “Discovery of Dual VEGFR-2 and Tubulin Inhibitors with in Vivo Efficacy” (ACS Med Chem Lett, 2010)
pEC50, pIC50: −log10 of the molar value. Calls of active or inactive are those of the source. The calls are words filed in the database; no cut-off is given here.

What was measured:
[1] = target: T1, Vascular endothelial growth factor receptor 2 (Homo sapiens, UniProt P35968); assay: Inhibition of VEGFR2 expressed HEK293 cells; format: cell-based
[2] = target: T1, Vascular endothelial growth factor receptor 2; assay: Inhibition of VEGFR-2 kinase assessed as phosphorylated level of pGAT-biotin peptide preincubated for 5 to 10 mins before addition of substrate measured after 2 hrs by HTRF assay
[3] = Inhibition of bovine tubulin polymerization after 30 mins by turbidity assay; design: species or system Bos taurus
[4] = target: Cyclin-dependent kinase 1 (Homo sapiens) (UniProt P06493); assay: Inhibition of CDK1
Chain of Cyclin-dependent kinase 1 (Homo sapiens) (P06493 whole entry, looked up): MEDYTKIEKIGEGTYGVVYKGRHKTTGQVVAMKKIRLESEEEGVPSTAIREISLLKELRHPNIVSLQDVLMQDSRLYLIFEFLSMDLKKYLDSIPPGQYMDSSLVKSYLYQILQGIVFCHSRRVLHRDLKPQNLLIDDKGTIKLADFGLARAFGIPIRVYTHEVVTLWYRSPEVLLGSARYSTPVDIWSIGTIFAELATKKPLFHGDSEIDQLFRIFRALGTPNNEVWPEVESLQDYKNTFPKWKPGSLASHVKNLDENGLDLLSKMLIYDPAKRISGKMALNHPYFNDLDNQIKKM

[5] = target: T2, Aurora kinase A (Homo sapiens) (UniProt O14965); assay: Inhibition of Aurora A kinase
T2 sequence (whole entry): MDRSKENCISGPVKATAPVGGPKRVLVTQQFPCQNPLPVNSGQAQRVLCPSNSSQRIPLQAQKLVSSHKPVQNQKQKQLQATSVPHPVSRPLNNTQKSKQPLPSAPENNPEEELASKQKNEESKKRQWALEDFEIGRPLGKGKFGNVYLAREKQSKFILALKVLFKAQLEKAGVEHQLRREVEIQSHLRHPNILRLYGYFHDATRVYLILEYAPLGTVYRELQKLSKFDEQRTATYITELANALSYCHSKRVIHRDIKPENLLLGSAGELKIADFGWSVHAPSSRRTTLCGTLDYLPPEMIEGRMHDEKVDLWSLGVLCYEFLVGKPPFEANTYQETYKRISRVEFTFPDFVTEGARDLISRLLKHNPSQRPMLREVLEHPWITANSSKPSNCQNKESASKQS

Mus musculus [6] = assay: Toxicity in mouse assessed as abnormal pathology at 100 mg/kg, po administered once a week; format: organism-based; design: dose 100 mg/kg, route oral; conditions: in vivo
Mus musculus [7] = assay: Toxicity in mouse assessed as white blood cell depletion at 100 mg/kg administered once a week; format: organism-based; design: dose 100 mg/kg; conditions: in vivo
[8] = Toxicity in po dosed mouse; format: organism-based; conditions: in vivo
Mus musculus [9] = assay: Toxicity in mouse assessed as neuropathy at 100 mg/kg administered once a week; format: organism-based; design: dose 100 mg/kg; conditions: in vivo
Mus musculus [10] = assay: Toxicity in mouse assessed as discomfort signs at 100 mg/kg, po administered once a week; format: organism-based; design: dose 100 mg/kg, route oral; conditions: in vivo
A-431 = assay: cells; conditions: Homo sapiens, A-431, 24 h
Description: Cell cycle arrest in human A431 cells assessed as accumulation at G2/M phase after 24 hrs using propidium iodide staining by cell sorting method

[11] = Antitumor activity against human MDA-MB-435-LM2 cells xenografted in mouse assessed as tumor size at 100 mg/kg, po administered once a week measured on day 26 relative to control; format: functional
Mus musculus [12] = assay: Toxicity in mouse assessed as body weight change at 100 mg/kg, po administered once a week; format: organism-based; design: dose 100 mg/kg, route oral; conditions: in vivo
[13] = target: Serine/threonine-protein kinase PLK1 (Homo sapiens) (UniProt P53350); assay: Inhibition of polo-like kinase 1
Chain of Serine/threonine-protein kinase PLK1 (Homo sapiens) (P53350 whole entry): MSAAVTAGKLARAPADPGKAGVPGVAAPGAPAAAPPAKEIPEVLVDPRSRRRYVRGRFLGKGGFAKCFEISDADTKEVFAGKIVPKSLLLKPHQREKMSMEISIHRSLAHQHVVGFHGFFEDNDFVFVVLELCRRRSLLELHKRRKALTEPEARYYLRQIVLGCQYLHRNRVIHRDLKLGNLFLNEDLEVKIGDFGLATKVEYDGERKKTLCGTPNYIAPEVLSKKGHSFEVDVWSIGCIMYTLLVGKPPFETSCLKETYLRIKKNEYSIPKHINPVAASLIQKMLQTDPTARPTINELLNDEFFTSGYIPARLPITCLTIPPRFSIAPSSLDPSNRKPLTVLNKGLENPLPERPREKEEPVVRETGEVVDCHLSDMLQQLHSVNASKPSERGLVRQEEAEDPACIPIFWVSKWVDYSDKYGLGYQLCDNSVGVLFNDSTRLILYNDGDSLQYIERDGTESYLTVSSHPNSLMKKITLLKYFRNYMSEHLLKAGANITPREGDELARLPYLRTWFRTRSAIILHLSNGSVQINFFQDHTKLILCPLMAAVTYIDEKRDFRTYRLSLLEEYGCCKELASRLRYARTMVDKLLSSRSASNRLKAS

Mus musculus [14] = assay: Toxicity in mouse assessed as inflamed intestine at 100 mg/kg, po administered once a week; format: organism-based; design: dose 100 mg/kg, route oral; conditions: in vivo
Mus musculus [15] = assay: Toxicity in mouse assessed as enlarged intestine at 100 mg/kg, po administered once a week; format: organism-based; design: dose 100 mg/kg, route oral; conditions: in vivo
Mus musculus [16] = assay: Toxicity in mouse assessed as moribund at 100 mg/kg, po administered once a week measured on day 26; format: organism-based; design: dose 100 mg/kg, route oral; conditions: in vivo
Mus musculus [17] = assay: Toxicity in mouse assessed as distended stomach at 100 mg/kg, po administered once a week; format: organism-based; design: dose 100 mg/kg, route oral; conditions: in vivo

T1 sequence (P35968 whole entry): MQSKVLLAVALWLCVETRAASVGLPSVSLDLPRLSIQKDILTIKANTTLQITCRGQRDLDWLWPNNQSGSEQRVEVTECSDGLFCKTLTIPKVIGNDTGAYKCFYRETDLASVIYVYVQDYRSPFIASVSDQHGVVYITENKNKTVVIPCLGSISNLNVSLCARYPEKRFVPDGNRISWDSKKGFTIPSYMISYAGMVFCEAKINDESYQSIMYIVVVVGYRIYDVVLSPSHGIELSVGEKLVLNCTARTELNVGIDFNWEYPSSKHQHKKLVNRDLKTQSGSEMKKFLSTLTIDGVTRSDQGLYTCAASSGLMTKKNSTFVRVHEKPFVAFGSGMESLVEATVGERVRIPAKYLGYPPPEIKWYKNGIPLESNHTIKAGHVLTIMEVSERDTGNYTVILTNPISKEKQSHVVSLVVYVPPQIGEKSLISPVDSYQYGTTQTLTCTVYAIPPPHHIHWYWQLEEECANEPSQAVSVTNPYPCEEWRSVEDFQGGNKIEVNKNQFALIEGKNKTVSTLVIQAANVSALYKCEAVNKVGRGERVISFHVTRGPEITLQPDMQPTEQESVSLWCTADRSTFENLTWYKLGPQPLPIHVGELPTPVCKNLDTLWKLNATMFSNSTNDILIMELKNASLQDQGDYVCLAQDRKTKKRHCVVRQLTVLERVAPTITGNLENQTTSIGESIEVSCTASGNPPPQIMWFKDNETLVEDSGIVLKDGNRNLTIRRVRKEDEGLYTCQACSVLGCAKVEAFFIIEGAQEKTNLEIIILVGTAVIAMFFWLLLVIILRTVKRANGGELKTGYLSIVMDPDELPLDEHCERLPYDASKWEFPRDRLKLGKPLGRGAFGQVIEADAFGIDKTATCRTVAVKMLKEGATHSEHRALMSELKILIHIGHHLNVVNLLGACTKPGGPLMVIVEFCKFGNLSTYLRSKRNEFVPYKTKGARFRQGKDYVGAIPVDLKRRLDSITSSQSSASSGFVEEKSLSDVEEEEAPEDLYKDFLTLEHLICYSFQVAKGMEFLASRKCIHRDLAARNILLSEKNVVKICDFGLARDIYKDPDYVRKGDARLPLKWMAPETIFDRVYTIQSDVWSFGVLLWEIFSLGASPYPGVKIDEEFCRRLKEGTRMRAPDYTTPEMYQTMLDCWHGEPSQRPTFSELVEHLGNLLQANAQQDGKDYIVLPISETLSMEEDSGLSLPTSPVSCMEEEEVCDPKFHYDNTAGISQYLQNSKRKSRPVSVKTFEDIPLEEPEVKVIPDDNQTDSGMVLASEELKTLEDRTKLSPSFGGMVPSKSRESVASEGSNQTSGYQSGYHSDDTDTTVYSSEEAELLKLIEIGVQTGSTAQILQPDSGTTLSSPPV

SMILES	pIC50 [1]	pIC50 [2]	pIC50 [3]	pEC50 (A-431)	also measured
c1ccc(CNc2ncccc2-c2nnc(Nc3ccc4c(c3)OCO4)o2)nc1	< 5.00	< 5.00	5.77	–	–
c1cnc(NCc2ccc3c(c2)OCO3)c(-c2nnc(Nc3ccc4c(c3)OCCO4)o2)c1	< 5.00	5.59	6.15	–	–
c1ccc(-c2nnc(Nc3ccc4c(c3)OCCO4)o2)c(NCc2ccncc2)c1	6.96	6.68	5.96	8.05	inhibition [4]: Active; inhibition [5]: Active; Activity (Mus musculus [6]): Toxic; Activity (Mus musculus [7]): Non-toxic; MTD [8]: 100 mg/kg; Activity (Mus musculus [9]): Non-toxic; Activity (Mus musculus [10]): Toxic; Activity [11]: 28%; Activity (Mus musculus [12]): 3.1%; inhibition [13]: Active
c1cnc(NCc2ccncc2)c(-c2nnc(Nc3ccc4c(c3)OCO4)o2)c1	< 5.00	5.72	6.00	–	–
FC1(F)Oc2ccc(Nc3nnc(-c4cccnc4NCc4ccncc4)o3)cc2O1	< 5.00	5.50	5.41	< 5.00	–
CC(=O)O[C@H]1C(=O)[C@@]2(C)[C@H]([C@H](OC(=O)c3ccccc3)[C@]3(O)C[C@H](OC(=O)[C@H](O)[C@@H](NC(=O)c4ccccc4)c4ccccc4)C(C)=C1C3(C)C)[C@]1(OC(C)=O)CO[C@@H]1C[C@@H]2O [PACLITAXEL]	–	–	–	–	Activity [11]: 78%; Activity (Mus musculus [14]): Toxic; Activity (Mus musculus [15]): Toxic; Activity (Mus musculus [12]): 2.8%; Activity (Mus musculus [16]): Toxic; Activity (Mus musculus [17]): Toxic
c1cncc(CNc2ncccc2-c2nnc(Nc3ccc4c(c3)OCO4)o2)c1	< 5.00	< 5.00	5.06	–	–
c1cnc(NCCc2ccncc2)c(-c2nnc(Nc3ccc4c(c3)OCO4)o2)c1	< 5.00	< 5.00	< 5.00	< 5.00	–
c1cncc(CCNc2ncccc2-c2nnc(Nc3ccc4c(c3)OCO4)o2)c1	< 5.00	5.47	5.77	< 5.00	–
c1cnc(NCc2ccc3c(c2)OCO3)c(-c2nnc(Nc3ccc4c(c3)OCO4)o2)c1	< 5.00	< 5.00	5.60	6.28	–
CS(=O)(=O)c1ccc(-c2nnc(-c3cccnc3NCC3COCCO3)[nH]2)cc1 (stereo unspecified)	< 5.00	5.35	5.18	< 5.00	–
FC(F)(F)c1cccc(-c2nnc(-c3cccnc3NCc3ccncc3)o2)c1	< 5.00	5.60	< 5.00	< 5.00	–
FC(F)(F)c1cccc(-c2nnc(-c3cccnc3NCc3ccncc3)[nH]2)c1	6.00	5.96	< 5.00	< 5.00	–

Now from value to compound, other results behind:

pIC50 [1]	pIC50 [2]	pIC50 [3]	pEC50 (A-431)	SMILES	also measured
6.08	6.80	5.82	8.00	c1cnc(NCc2cnc[nH]2)c(-c2nnc(Nc3ccc4c(c3)OCCO4)o2)c1	–
< 5.00	< 5.00	< 5.00	< 5.00	c1cncc(CCNc2ncccc2-c2nnc(Nc3ccc4c(c3)OCCO4)o2)c1	–
6.00	6.77	6.30	–	c1cnc(NCc2ccncc2)c(-c2nnc(Nc3ccc4c(c3)OCCO4)o2)c1	–
< 5.00	5.29	5.09	7.31	c1ccc(-c2nnc(Nc3ccc4c(c3)OCCO4)[nH]2)c(NCc2ccncc2)c1	–
< 5.00	5.34	< 5.00	< 5.00	c1ccc(-c2nnc(Nc3ccc4c(c3)OCCO4)[nH]2)c(NCc2cnc[nH]2)c1	–
< 5.00	5.85	5.90	7.47	c1cnc(NCc2ccc3[nH]ncc3c2)c(-c2nnc(Nc3ccc4c(c3)OCCO4)o2)c1	–
6.66	6.52	5.84	7.74	c1cnc(NCc2ccc3ncccc3c2)c(-c2nnc(Nc3ccc4c(c3)OCCO4)o2)c1	inhibition [4]: Active; inhibition [5]: Active; inhibition [13]: Active
5.55	5.49	< 5.00	< 5.00	c1cncc(CNc2ccccc2-c2nnc(Nc3ccc4c(c3)OCCO4)[nH]2)c1	–
< 5.00	< 5.00	< 5.00	< 5.00	c1ccc(-c2nnc(Nc3ccc4c(c3)OCCO4)[nH]2)c(NCc2ccc3ncccc3c2)c1	–
< 5.00	< 5.00	< 5.00	< 5.00	c1cnc(NCCc2ccncc2)c(-c2nnc(Nc3ccc4c(c3)OCCO4)o2)c1	–
5.14	5.51	< 5.00	< 5.00	c1ccc(-c2nnc(Nc3ccc4c(c3)OCCO4)[nH]2)c(NCc2ccc3[nH]ncc3c2)c1	–
< 5.00	< 5.00	5.72	–	c1ccc(CNc2ncccc2-c2nnc(Nc3ccc4c(c3)OCCO4)o2)nc1	–
< 5.00	6.08	6.16	6.21	c1ccc(-c2nnc(Nc3ccc4c(c3)OCO4)o2)c(NCc2ccncc2)c1	–
< 5.00	< 5.00	6.15	–	c1cncc(CNc2ncccc2-c2nnc(Nc3ccc4c(c3)OCCO4)o2)c1	–
